Legend:
LPA2 receptor = LPA2 receptor (Homo sapiens, UniProt Q9HBW0); assay: Intracellular free Ca2+ (Fura-2AM) in LPA2-expressing B103 cells; type: cell-based; set-up: host or cells: B103 rat neuroblastoma cells; settings: LPA2-expressing B103 cells
Excerpt: LPA family receptors are endogenous to cells of most organs. B103 rat neuroblastoma cells, known as LPA receptor-null cells (Valentine et al., Biochim Biophys Acta 1780. 597-605) were transiently transfected with a plasmid (vector) carrying one of genes coding for LPA1(edg-2), LPA2(edg-4), LPA3(edg-7), LPA4, LPA5 and LPA6 receptors or a plasmid carrying none of them (empty vector). Two or three days after transfection, the cells are suspended, and made permeable. Then, the permeable cells are treated with Fura-2AM, a fluorescent dye binding to calcium, and then with gintonin, followed by spectrofluorephotometry to examine whether gintonin induces an increase in intracellular free Ca^2+ level.
(1) preparing large quantities of plasmids carrying respective LPA family receptor genes and an empty plasmid carrying none of them through amplification and purification (maxi-preparation); (2) verifying the expression of LPA receptors wherein B103 cells are transfected with haematoglutin (HA)-tagged LPA receptors, and then subjected to Western blotting analysis using an anti-HA primary antibody and a horseradish peroxidase (HRP)-conjugated secondary antibody to develop a color; (3) verifying the expression of LPA receptors wherein B1-3 cells are transfected with haematoglutin (HA)-tagged LPA receptors, and then subjected to confocal laser microscopy using an anti-HA antibody and a fluorescence dye Cy3-conjugated secondary antibody; (4) transfecting the empty plasmid and each of the plasmids carrying LPA family receptor genes into B103 cells; (5) treating the transfected B103 cells with trypsin (0.05% trypsin with EDTA, w/v) 2-3 days post-transfection, to give a cell suspension; (6) culturing the suspended B103 cells with Fura-2AM (2.5 μM); and (7) treating the suspended B103 cells with gintonin and quantifying a change in intracellular free Ca^2+ level in a cuvette by spectrofluorephotometry using Fura-2AM.
Human LPA (lysophosphatidic acid) receptor subtypes, orphan GPCRs (G protein coupled receptors) and plasmids carrying GPCRs were purchased from Missouri S&T resource Center (www.cDNA.org).
The transient transfection of LPA receptor subtypes was carried out with the aid of Lipofectamine 2000 of Invitrogen. A plasmid (10.8 μg) carrying each LPA receptor (LPA1, LPA2, LPA3, LPA4, LPA5, and LPA6) was transfected into B103 cells grown in 10-cm dishes, and incubated for 2 days prior for use in experiments.
In this Example, gintonin, or ginsenoside Rb1 or Rg1 was examined for its ability to induce a transient increase of [Ca^2+]i in Fura-2AM-loaded B103 cells which were transfected with LPA receptors and in Fura-2AM-loaded B103 cells which were not transfected with LPA receptors. […]

BKCaK+ channels = assay: BKCa K+ channel activity in Xenopus oocytes, two-electrode voltage clamp; type: cell-based; settings: 2-APB 100 μM, BAPTA-AM, PMA 1 μM
Experimental: (§1) Xenopus laevis frogs were obtained from Xenopus I (Ann Arbor, Mich.). Their care and handling were in accordance with the highest standards of institutional guidelines. To isolate oocytes, the frogs were operated on under anesthesia with an aerated solution of 3-aminobenzoic acid ethyl ester. Oocytes were separated by treatment with collagenase and agitation for two hours in a Ca^2+-free medium containing 82.5 mM NaCl, 2 mM KCl, 1 mM MgCl2, 5 mM HEPES, 2.5 mM sodium pyruvate, 100 units/ml penicillin and 100 μg/ml streptomycin.
(§2) Stage V-VI oocytes were collected and stored in ND96 (96 mM NaCl, 2 mM KCl, 1 mM MgCl2, 1.8 mM CaCl2, and 5 mM HEPES, pH 7.4) supplemented with 50 μg/ml gentamicin. This oocyte containing solution was maintained at 18° C. with continuous gentle shaking while the ND96 medium was changed with a fresh one every day.
Two-electrode voltage-clamp recordings were obtained from individual oocytes placed in a small Plexiglas net chamber (5 ml). Electrophysiological experiments were performed using microelectrodes filled with 3 M KCl (resistance of 0.2-0.7 MΩ) and an Oocyte Clamp amplifier (OC-725C; Warner Instrument, CT, USA) to record BKc K^+ channel activity at room temperature (Choi et al., Mol Cells 31, 133-140, 2011). For physiological recordings of BKCaK^+ channel activity, oocytes were first perfused with a Cl^−- and Ca^2+-free solution (mM: 96 NaOH, 2 KOH, 8 Mg-gluconate, 5 HEPES, 5 EGTA, pH 7.4 with methanesulfonic acid) supplemented with 500 μM anthracene-9-carboxylic acid, a Cl^− channel blocker, to block endogenous Cl-channels (Lu et al., J. Biol. Chem. 265, 16190-16194.1990). Then, the oocytes were clamped at −80 mV holding potential, followed by step depolarization from the holding potential to +40 mV at regular intervals of […] for 400 ms to record outward currents.

[1] = system: NMDA receptors (NR1 and NR2); assay: NMDA receptor activity in Xenopus oocytes, two-electrode voltage clamp; type: cell-based; settings: Kil6425 10 μM, 2-APB 100 μM, BAPTA 100 μM 3 h
Experimental: cDNAs of NMDA receptor subunits (NR1 and NR2) were employed (Zheng et al., J Neurosci. 17, 8676-8686, 1997). cDNAs (100 ng/40 nl) corresponding to respective NMDA receptor subunits (NR1 and NR2) were injected into animal or vegetal poles of oocytes by use of a […] (VWR Scientific, USA) and incubated for 4-5 days after injection (Zheng et al., J Neurosci. 17, 8676-8686, 1997).
as §1
as §2, with “changed to” for “changed with”
Two-electrode voltage-clamp recordings were obtained from individual oocytes placed in a small Plexiglas net chamber (5 ml). Electrophysiological experiments were performed using microelectrodes filled with 3 M KCl (resistance of 0.2-0.7 MΩ) and an Oocyte Clamp amplifier (OC-725C; Warner Instrument, Hamden, Conn.). For physiological recordings of NMDA receptor activity, oocytes were first perfused with Mg^2+-free ND96 (mM: 96 NaOH, 2 KOH, 0.3 CaCl2, 5 HEPES pH 7.6 with methanesulfonic acid). Then, the oocytes were clamped at −60 mV holding potential, followed by recoding NMDA currents (induced by administering […]) (Zheng et al., J Neurosci. 17, 8676-8686, 1997; Chang and Kuo, J Neurosci. 28, 1546-1556, 2008).

endogenous CaCC = assay: Endogenous Ca2+-activated channel (CaCC) activation in Xenopus oocytes; type: cell-based, Xenopus laevis; settings: Kil6425 10 μM; U73122 1 μM; 2-APB 100 μM; BAPTA 100 μM 3 h
mice [2] = assay: Water maze test, scopolamine-caused spatial cognition impairment; type: in vivo, mouse; settings: scopolamine alone (0.9 mg/kg i.p.)
Experimental: The Moths water maze set up contained a round water pool (45 cm deep with a diameter of 90 cm) filled with milk-mixed water (22±1° C.) to a depth of 30 cm. It was placed in a dark, sound-shielded room in which various visual cues were established. A white platform (6 cm in diameter, 29 cm in height) was inside the pool, with the top thereof 1 cm below the water surface in the center of one quadrant of the maze
On day 1, the mice were trained to swim for 60 sec. Subsequently, the training was conducted four times a day for four consecutive days, with the platform inside the pool. When the mouse reached the platform, it was allowed to sit on the platform only for 10 sec. If the failed in reaching the platform within 60 sec, it was guided to reach the platform and stay for 10 sec thereon. Afterwards, the mouse was returned back to the home cage and allowed to dry its body under an IR lamp. The time interval between trials was 30 sec.
The time to reach the hidden platform was recorded in each trial using a video camera-based Ethovision System (Nodulus, Wageningen, the Netherlands).
For each training trial, the mouse was placed into the pool at one quadrant at positions which were different day by day. One day after the final training trial, the mouse was evaluated. In this regard, after the platform was removed, the mouse was allowed to swim for 60 sec in search for the platform, and the time to swim in the quadrant where the platform was located was recorded. Gintonin (25, 50, or 100 mg/kg, p.o.) in physiological saline was administered 1 hr before test, every day. Tacrine (10 mg/kg, p.o.) was used as a positive control. Memory impairment was induced by scopolamine (0.9 mg/kg i.p.) 30 min after gintonin administration. For a negative control, only physiological saline was administered.
An examination was made of simple spatial reasoning. To this end, while the mice were allowed to swim in the absence of the rescue platform in the pool, the time period during which the mice swam in the quadrant where the rescue platform had been located was recorded.

mice [3] = assay: Passive avoidance test, scopolamine-caused long-term memory impairment; type: in vivo, mouse; settings: scopolamine alone (0.9 mg/kg, i.p.); test session 24 h after learning
Experimental: ICR male mice (25-28 g), purchased from Oriental Bio (Seoul, Korea), were bred according to the guideline of the Institutional Animal Care and Use Committee of Konkuk University, and subjected to passive avoidance test to examine memory maintenance impairment and the protection of gintonin against memory impairment according to the method of Yang et al. (Yang et al., Biol Pharm Bull 32, 1710-1715, 2009).
A passive avoidance test was performed in a training chamber which was divided into two compartments (20×20×20 cm in size, each) separated by an automatically moving guillotine door (5×5 cm): one compartment was lighted while the other remained dark where metal rods installed in a lattice pattern on the bottom so as to deliver an electrical foot shock (Gemini Avoidance System, San Diego, USA).
For an acquisition trial, a mouse was first placed in the lighted compartment, facing away from the dark compartment and allowed to explore for 10 sec. After 10 sec, the guillotine door was opened and the mouse was allowed to explore freely. When the mouse entered the dark compartment with all four paws according to its habit, the guillotine door was closed, and a footshock (0.5 mA, 3 sec duration) was delivered. The latency time to enter the dark compartment was recorded (from the time the door was lifted). 120 min before experimentation, gintonin (25, 50, 100 mg/kg, p.o) was administered while tacrine (10 mg/kg, p.o) was used as a positive control. Memory impairment was induced by injecting scopolamine (0.9 mg/kg, i.p.) 30 min after gintonin or tacrine administration (Araujo et al., Prog Neuropsycopharmcol Biol Psychiatry 29, 411-422, 2005). For a negative control, a physiological saline was used.
24 Hours after the learning session, an experiment was performed without injecting gintonin. The mouse was positioned again in the lighted compartment. After 10 sec of acclimation, the latency time to enter the dark compartment was recorded (from the time the door was lifted).

LPA2 receptor, sequence (Q9HBW0 whole entry): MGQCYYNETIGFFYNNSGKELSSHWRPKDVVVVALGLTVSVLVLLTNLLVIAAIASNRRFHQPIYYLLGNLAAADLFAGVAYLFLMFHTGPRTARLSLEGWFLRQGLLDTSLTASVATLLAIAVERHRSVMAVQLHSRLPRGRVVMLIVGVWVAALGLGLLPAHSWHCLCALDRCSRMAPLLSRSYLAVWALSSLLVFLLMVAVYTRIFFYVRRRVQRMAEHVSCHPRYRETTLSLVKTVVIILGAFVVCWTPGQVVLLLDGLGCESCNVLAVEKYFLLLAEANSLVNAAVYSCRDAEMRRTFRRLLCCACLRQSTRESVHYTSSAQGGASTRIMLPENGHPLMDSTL

Row | SMILES | effect on gintonin-induced intracellular calcium increase (LPA2 receptor) | effect on gintonin-induced BKCaK+ channel activation (BKCaK+ channels; Kil6425 10 μM, U73122, U73343 1 μM) | effect on ginsenoside Rg3-induced BKCaK+ channel activity (BKCaK+ channels; U73122 1 μM) | effect on NMDA-induced inward current ([1]; U73122 1 μM) | effect on gintonin-induced NMDA receptor activation ([1]; gintonin 1 μg/ml, U73122, U73343 1 μM, genistein 10 μM, PP2, PP3 30 μM) | effect on gintonin-induced CaCC activation (endogenous CaCC) | swimming time in the quadrant where the platform had been located (mice [2]) | latency time (mice [3])
1 | NCCOB(c1ccccc1)c1ccccc1 [2-APB] | blocked | blocked gintonin-induced BKCaK^+ channel activation | not blocked | did not block NMDA-induced inward current | blocked gintonin-induced NMDA receptor activation | suppressed gintonin-induced CaCC activation |  | 
2 | CN1[C@@H]2C[C@@H](OC(=O)[C@H](CO)c3ccccc3)C[C@H]1[C@@H]1O[C@@H]12 [scopolamine, reference compound] |  |  |  |  |  |  | 13.47 ± 1.86 s | 23.07 ± 1.95 s

— US20140234868A1, “USE FOR GLYCOLIPOPROTEIN GINTONIN, ISOLATED AND IDENTIFIED FROM GINSENG, AS A NATURAL MEDICAL-PLANT DERIVED LIGAND” (KONKUK UNIVERSITY INDUSTRIAL COOPERATION CORP., priority 2011, published 2014)
